Measured values taken from patent EP4772514A1, “MACROCYCLIC COMPOUNDS, PREPARATION METHOD THEREFOR, AND USE THEREOF” (Genfleet Therapeutics (Shanghai) Inc., priority 2023, dated 2025).

Legend:
Assay type in all cases: cell-based
p-ERK [1] = test: Cell p-ERK assay (HTRF, Advance ERK phospho-T202/Y204 kit) in AsPC-1 cells; details: ASPC1; AsPC-1, human pancreatic cancer cell strain, KRAS G12D mutation; 3 h compound incubation
Procedure: AsPC-1 cells were purchased from ATCC, Cat. No. CRL-1682; NCI-H441 cells were purchased from ATCC, Cat. No. HTB-174; RPMI-1640 medium was purchased from Gibco, Cat. No. 11875-093; FBS was purchased from Gibco, Cat. No. 10099-141C; penicillin/streptomycin double-antibiotic solution (PS) was purchased from Gibco, Cat. No. 15140-122; trypsin (containing EDTA) was purchased from Gibco, Cat. No. 25200-072; DMSO was purchased from VWRAMRESCO, Cat. No. 0231-500ML; 96-well cell culture plates were purchased from Corning, Cat. No. 3599; white-bottomed, opaque 96-well plates were purchased from Cisbio, Cat. No. 66PL96025; Advance ERK phospho-T202/Y204 kit was purchased from Cisbio, Cat. No. 64AERPEH; cell counter was purchased from CHEMOMETEC, model: NC-200; microplate reader was purchased from PerkinElmer, model: EnVision.
AsPC-1, a human pancreatic cancer cell strain endogenously containing a KRAS^G12D mutation, was cultured in a complete medium containing RPMI-1640 + 10% FBS + 1% PS. NCI-H441, a human non-small cell lung cancer cell strain endogenously containing a KRAS^G12V mutation, was cultured in a complete medium containing RPMI-1640 + 10% FBS + 1% PS.
The cells were digested with trypsin (containing EDTA), collected in their corresponding complete media, and counted. The density of the cell suspensions was adjusted with their corresponding complete media, and AsPC-1 cells (10000 cells/well) or NCI-H441 cells (20000 cells/well) were seeded into a 96-well cell culture plate, with the volume of the medium in each well being 80 µL. The cell culture plate was incubated in an incubator at 37 °C with 5% CO2 overnight. A series of 3.16-fold gradient dilutions of a 1000× compound stock solution were prepared with DMSO, and then diluted 200-fold with the complete medium described above to give 5× compound stock solutions. On the day after cell seeding, 20 µL of the 5× compound stock solution was added to each cell culture well. As a result, the final concentration of the compound in the cell culture well became 1×, and the DMSO content in the well was 0.1%. In addition to the compound-treated wells described above, cell-containing DMSO control wells were also set. A complete medium containing 0.5% DMSO was added at 20 µL/well. After the mixture was well mixed, the culture plate was incubated in the incubator at 37 °C with 5% CO2 for another 3 h. The medium was then removed from the culture wells, and 50 µL of cell lysis buffer (from Advance ERK phospho-T202/Y204 kit) was added to each well. The mixture was well mixed, incubated for 30 min, and then transferred to a white-bottomed, opaque 96-well assay plate at 16 µL/well, and separately, 16 µL of cell lysis buffer was added to additional wells (serving as blank wells) in the assay plate. After the transfer was completed, 4 µL of p-ERK HTRF antibody mixture (from Advance ERK phospho-T202/Y204 kit) was added to each well of the assay plate, followed by a 4-hour incubation. The HTRF signal values (RLU) were then measured using a microplate reader, and the inhibition rate of the compound against p-ERK levels was calculated as follows: IR(%) = (RLUDMSO - RLUcompound)/(RLUDMSO - RLUblank) × 100%, where RLUDMSO is the average HTRF signal value from the DMSO control well samples, RLU is the average HTRF signal value from the blank well samples, and RLUcompound is the HTRF signal value from the compound-treated well samples. Using an XLfit software, the IR(%) values were plotted against the logarithm of the compound concentrations, and the dose-response curves were fitted using the four-parameter method to calculate the IC50 values.

p-ERK [2] = test: Cell p-ERK assay (HTRF, Advance ERK phospho-T202/Y204 kit) in NCI-H441 cells; details: Homo sapiens, NCI-H441, 3 h, NCI-H441, human non-small cell lung cancer cell strain, KRAS G12V mutation; 3 h compound incubation
Outline: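 Phospho-ERK (T202/Y204) measured by HTRF in lysates of AsPC-1 (KRAS G12D) or NCI-H441 (KRAS G12V) cells after 3 h compound exposure at 37 °C in RPMI-1640 + 10% FBS, 0.1% DMSO. Inhibition normalised to DMSO and blank wells; IC50 by four-parameter fit.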

NCI-H441 cells = test: 3D cell proliferation assay (CellTiter Glo-3D) in NCI-H441 cells; details: Homo sapiens, NCI-H441, 120 h, NCI-H441, human lung cancer cell strain, KRAS G12V mutation; 3D culture, 2% FBS, 5 days; read-out: H441 AP IC50
Outline: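 KRAS^G12V NCI-H441 and KRAS^G12D AsPC-1 cells (800 cells/well each) grown in RPMI-1640 with 2% FBS and treated the day after seeding with 3.16-fold compound dilutions (0.1% DMSO) for 5 days at 37 °C. Viability by CellTiter-Glo 3D luminescence; inhibition versus DMSO and cell-free controls, IC50 from four-parameter fit.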

AsPC-1 cells = test: 3D cell proliferation assay (CellTiter Glo-3D) in AsPC-1 cells; details: ASPC1, 120 h; AsPC-1, human pancreatic cancer cell strain, KRAS G12D mutation; 3D culture, 2% FBS, 5 days; read-out: AsPC-1 AP IC50
Description: MIA PaCa-2 cells were purchased from ATCC, Cat. No. CRL-1420; AsPC-1 cells were purchased from ATCC, Cat. No. CRL-1682; NCI-H441 cells were purchased from ATCC, Cat. No. HTB-174; NCI-H1975 cells were purchased from ATCC, Cat. No. CRL-5908; DMEM medium was purchased from Gibco, Cat. No. 11995-065; RPMI-1640 medium was purchased from Gibco, Cat. No. 11875-093; FBS was purchased from Gibco, Cat. No. 10099-141C; penicillin/streptomycin double-antibiotic solution (PS) was purchased from Gibco, Cat. No. 15140-122; Horse serum was purchased from Gibco, Cat. No. 16050130; trypsin (containing EDTA) was purchased from Gibco, Cat. No. 25200-072; DMSO was purchased from VWRAMRESCO, Cat. No. 0231-500ML; 384-well cell culture plates were purchased from Corning, Cat. No. 3830; white-bottomed, opaque 384-well assay plates were purchased from Corning, Cat. No. 3570; CellTiter Glo-3D kit was purchased from Promega, Cat. No. G9683; cell counter was purchased from CHEMOMETEC, model: NC-200; microplate reader was purchased from PerkinElmer, model: EnVision.
MIA PaCa-2, a human pancreatic cancer cell strain endogenously containing a KRAS^G12Cmutation, was cultured in a complete medium containing DMEM + 10% FBS + 2.5% Horse serum + 1% PS. AsPC-1, a human pancreatic cancer cell strain endogenously containing a KRAS^G12D mutation, was cultured in a complete medium containing RPMI-1640 + 10% FBS + 1% PS. NCI-H441 cells, a human lung cancer cell strain endogenously containing a KRAS^G12V mutation, were cultured in a complete medium containing RPMI-1640 + 10% FBS + 1% PS. NCI-H1975, a KRAS wild-type human lung cancer cell strain whose cell proliferation […], was cultured in a complete medium containing RPMI-1640 + 10% FBS + 1% PS.
The cells were digested with trypsin (containing EDTA), collected in their respective low-serum complete media containing 2% FBS (for MIA Paca-2 cell culture: DMEM + 2% FBS + 0.5% Horse serum + 1% PS), and counted. After the cell density was adjusted as required, MIA PaCa-2 cells (200 cells/well), AsPC-1 cells (800 cells/well), NCI-H441 cells (800 cells/well), or NCI-H1975 cells (400 cells/well) were seeded into a 384-well cell culture plate, with the volume of the medium in each well being 45 µL. The cell culture plate was incubated in an incubator at 37 °C with 5% CO2 overnight. A series of 3.16-fold gradient dilutions of a 1000× compound stock solution were prepared with DMSO, and then diluted 100-fold with the complete medium containing 2% FBS described above to give 10× compound stock solutions. On the day after cell seeding, 5 µL of the 10× compound stock solution was added to each cell culture well. As a result, the final concentration of the compound in the cell culture well became 1×, and the DMSO content in the well was 0.1%. In addition to the compound-treated wells described above, cell-containing DMSO control wells (with 5 µL of the complete medium containing 1% DMSO added to each well) and cell-free medium control wells (containing 50 µL of the complete medium with 2% FBS) were also set. The culture plate was incubated in an incubator at 37 °C with 5% CO2 for another 5 days, and then 30 µL of CellTiter-Glo working solution was added to each well. The mixture was well mixed, incubated for 30 min, left to stand at room temperature for 30 min, and then transferred to a white-bottomed, opaque 384-well assay plate at 40 µL/well. The chemiluminescence values (RLU) were measured using a microplate reader, and the cell proliferation inhibition rate for each well was calculated: IR(%) = (RLUDMSO - RLUcompound)/(RLUDMSO - RLUblank) × 100%, where RLUDMSO is the average RLU signal value from the DMSO control well samples, RLUblank is the average RLU signal value from the medium control well samples, and RLUcompound is the RLU signal value from the compound-treated well samples. […]

| SMILES | IC50 (p-ERK [1]) [nM] | IC50 (p-ERK [2]) [nM] | IC50 (NCI-H441 cells) [nM] | IC50 (AsPC-1 cells) [nM] |
| --- | --- | --- | --- | --- |
| CCn1cc2c(c1-c1cc(N3CCN(C)CC3)cnc1[C@H](C)OC)CC(C)(C)COC(=O)[C@@H]1CCCN(N1)C(=O)[C@@H](NC(=O)[C@H]1[C@H](C)[C@@H]1C)Cc1nc(cs1)/C=C/2 (atropisomer, axis not shown) [Compound Z8A, (1r,2S,3R)-N-((4^2Z,8^3R,2E,6R)-1^1-ethyl-1^5-(2-((S)-1-methoxyethyl)-5-(4-methylpiperazin-1-yl)pyridin-3-yl)-12,12-dimethyl-7,9-dioxo-8^1,8^2,8^3,8^4,8^5,8^6-hexahydro-1^1H-10-oxa-4(4,2)-thiazola-8(1,3)-pyridazina-1(3,4)-pyrrolacyclotridecaphan-2-en-6-yl)-2,3-dimethylcyclopropane-1-carboxamide] | 8.19 | 8.08 | 3.98 | 3.71 |
| CO[C@@H](C)c1ncc(C#CCN2CCS(=O)(=O)CC2)cc1-c1c2c(nn1C(C)C)/C=C/c1csc(n1)C[C@H](NC(=O)[C@H]1[C@H](C)[C@@H]1C)C(=O)N1CCC[C@H](N1)C(=O)OCC(C)(C)C2 (atropisomer, axis not shown) [Compound Z15A, (1r,2R,3S)-N-((4^2Z,8^3S,2E,6S)-1^5-(5-(3-(1,1-dioxidothiomorpholino)prop-1-yn-1-yl)-2-((S)-1-methoxyethyl)pyridin-3-yl)-1^1-isopropyl-12,12-dimethyl-7,9-dioxo-8^1,8^2,8^3,8^4,8^5 3^6-hexahydro-1^1H-10-oxa-4(4,2)-thiazola-8(1,3)-pyridazina-1(3,4)-pyrrolacyclotridecaphan-2-en-6-yl)-2,3-dimethylcyclopropane-1-carboxamide] | 30 | 7.99 | 7.63 | 22.7 |
| CCn1c(-c2cc(C#CCN3CCS(=O)(=O)CC3)cnc2[C@H](C)OC)c2c3cc(ccc31)NC(=O)OC[C@H](NC(=O)[C@H]1[C@H](C)[C@@H]1C)C(=O)N1CCC[C@H](N1)C(=O)OCC(C)(C)C2 (atropisomer, axis not shown; (Ra)) [Compound Z36, (1r,2R,3S)-N-((7^3S,9S)-1^2-(5-(3-(1,1-dioxidothiomorpholino)prop-1-yn-1-yl)-2-((S)-1-methoxyethyl)pyridin-3-yl)-1^1-ethyl-(Ra)-3,3-dimethyl-6,8,12-trioxo-7^1,7^2,7^3,7^4,7^5,7^6-hexahydro-1^1H-5,11-dioxa-13-aza-1(3,5)-indola-7(3,1)-pyridazinaocycloundecan-9-yl)-2,3-dimethylcyclopropane-1-carboxamide] | 230 | 40.4 | 40.6 | 374 |
| CO[C@@H](C)c1ncc(C#CCN2CCS(=O)(=O)CC2)cc1-c1c2c(nn1C(C)C)/C=C/c1csc(n1)C[C@H](NC(=O)CC1CC(CO)C1)C(=O)N1CCC[C@H](N1)C(=O)OCC(C)(C)C2 (stereo partly drawn) [Compound Z39, N-((4^2Z,8^3S,2E,6S)-1^5-(5-(3-(1,1-dioxidothiomorpholino)prop-1-yn-1-yl)-2-((S)-1-methoxyethyl)pyridin-3-yl)-1^1-isopropyl-12,12-dimethyl-7,9-dioxo-8^1,8^2,8^3,8^4,8^5,8^6-hexahydro-1^1H-10-oxa-4(4,2)-thiazola-8(1,3)-pyridazina-1(3,4)-pyrrolacyclotridecaphan-2-en-6-yl)-2-(3-(hydroxymethyl)cyclobutyl)acetamide] | 506 | 177 |  |  |
